Assay: gradient 5% acetonitrile 3 min, to 50% in 2 min, to 85% in 15 min, held 3 min, 100 µL/min
Conditions: column: Zorbax Extend-C18 2.1 x 50 mm; eluents: water / acetonitrile, 0.1% formic acid
In short: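 Pure standards were run in mixtures of ~100 molecules by HPLC coupled to a quadrupole time-of-flight mass spectrometer. The column was a Zorbax Extend-C18 (2.1 × 50 mm, 1.8 μm) at 100 μL/min, with water and acetonitrile each containing 0.1% formic acid, in positive and negative ionization mode. Dead and dwell volumes were 40 μL and 900 μL. Retention time was taken from computationally picked adduct peaks, each manually inspected, with data collected over 3 months.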

| Structure (SMILES) | RP-LC retention time |
| --- | --- |
| Cc1nc2cc(NC(=O)c3ccc(N4CCOCC4)nn3)ccc2s1 | 676 s |
| Fc1ccc(-c2ccc(CNC3CN4CCC3CC4)o2)cc1 (configuration not stated) | 558 s |
| COc1ccccc1-c1noc(Cn2ncn3nc(-c4ccccc4Cl)cc3c2=O)n1 | 1040 s |
| Cc1sc(NC(=O)CSc2nnc(COc3ccccc3)o2)nc1-c1ccccc1 | 877 s |
| Cc1ccc(S(=O)(=O)N2CCC(C(=O)NCCc3csc(-c4cccs4)n3)CC2)c(C)c1 | 955 s |
| Cc1ccc(-c2cn3c(CC(=O)NCc4ccccc4C)csc3n2)cc1C | 859 s |
| O=C(CCC1CCN(c2cc(NC3CC3)ncn2)CC1)N1CCN(c2ncccn2)CC1 | 615 s |
| CCCN1C(=O)CN(S(=O)(=O)c2ccccc2)CC1(C)C(=O)NCc1ccccc1 (configuration not stated) | 809 s |
| O=C(CSCc1ccccc1)NCC1CCN(C(=O)Oc2ccccc2)CC1 | 853 s |
| CCOC(=O)c1cccc(Nc2nc(-c3cccnc3)nc3ccccc23)c1 | 832 s |
| CCOC(=O)C1CCN(c2nc(-c3ccc(OC)cc3)nc3ccccc23)CC1 | 790 s |
| Cc1ccc(NC(=O)Cn2nc(N3CCCC3)c3ccccc3c2=O)c(F)c1 | 885 s |
| Cn1cnc2c(C(=O)N3CCc4ccccc4C3)nn(-c3ccccc3)c2c1=O | 831 s |
| CCSc1nc2c(s1)c(=O)n(-c1ccccc1)c(=O)n2CC(=O)NC1CCCCC1 | 645 s |
| CCN1CCN(CCCNC(=O)C2CCCN(C(=O)c3cc4sccc4n3CC)C2)CC1 (configuration not stated) | 566 s |
| CCOC(=O)CC1(NC(=O)N2CCC(c3nc4ccncc4n3C)C2)CCCCC1 (configuration not stated) | 553 s |
| N#Cc1ccccc1CN1CCC2(CCC2O)CC1 (configuration not stated) | 565 s |
| COc1ccc(-c2nc3cc(C)ccn3c2NC(=O)C(C)(C)Oc2ccc(Cl)cc2)cc1 | 828 s |
| CCC(=O)N(C1CCOCC1)C1CCN(S(=O)(=O)c2ccc(F)cc2F)CC1 | 998 s |
| CCN(CC)S(=O)(=O)c1ccc2c(c1)ncn2CCC(=O)N1CCN(c2ccccn2)CC1 | 602 s |
| CCN1C(=O)NC(c2ccc(C(F)(F)F)cc2)C2=C1CN(CCC(=O)N1CCOCC1)C2=O (configuration not stated) | 638 s |
| Cc1ccc(Cn2c(CN3CCC(C(=O)NCc4ccccn4)CC3)cc3ccccc32)cc1 | 655 s |

| Structure (SMILES) | RP-LC retention time |
| --- | --- |
| O=C(c1cccs1)N1CCCC1c1nc(-c2ccc(F)cc2F)no1 (configuration not stated) | 926 s |
| O=c1ccc(-c2ccccc2)nn1Cc1nc(-c2cccc(Br)c2)no1 | 1090 s |
| CCOC(=O)c1[nH]c(C)c(CCC(=O)Nc2ccc3c(c2)OCCO3)c1C | 805 s |
| CN(C)c1ccc2c(c1)CN(C(=O)C1CC1)CCO2 | 574 s |
| CCCS(=O)(=O)N1CCc2c(c(CN(C(=O)c3ccccc3)c3ccccc3)nn2C)C1 | 833 s |
| COc1cccc(OC)c1C(=O)Nc1ccc2c(c1)CCCN2C(=O)C1CC1 | 722 s |
| O=C(Nc1cccc(NC(=O)c2cccc(O)c2O)c1)c1cccc(O)c1O | 765 s |
| CCc1noc(-c2ccc(SCC(=O)N3CCC(C)CC3)nc2)n1 | 975 s |
| Brc1ccc(-c2noc(Cc3nnc(-c4ccccc4)o3)n2)cc1 | 1110 s |
| Cc1ccc(S(=O)(=O)N2C[C@@H](F)C[C@H]2C(=O)N2CCCCC2)c(C)c1 | 874 s |
| CC(=O)Oc1ccc2cc(-c3ccccc3)c(=O)oc2c1 | 1000 s |
| CCCn1cc(C2=CCN(S(=O)(=O)c3cccc(C(F)(F)F)c3)CC2)c2cccnc21 | 1180 s |
| CSc1cccc(NC(=O)Cn2cccc(-c3nc(-c4ccc(Br)cc4)no3)c2=O)c1 | 1050 s |
| O=C(Cn1cccc1-c1nc(-c2ccc3c(c2)OCO3)no1)Nc1ccc2c(c1)CCC2 | 1140 s |
| Cc1ccc(C)c(CNC(=O)c2cnc(-c3ccccc3)nc2-c2ccncc2)c1 | 913 s |
| CC(C)(C)NC[C@@H](O)COc1cccc2c1CCCC2=O | 689 s |
| CCNC(=O)N1CCCC1c1cc(C)no1 (configuration not stated) | 615 s |
| O=C(Nc1ccc(F)cc1F)c1c(O)c2cccnc2n(Cc2ccccc2)c1=O | 1310 s |
| CCc1ccc(Nc2nc(C(=O)NCCN3CCCC3)nc3ccccc23)cc1 | 632 s |
| CC(=O)Nc1ccc(NC(=O)C2CCN(S(=O)(=O)c3ccc4c(c3)CCCC(=O)N4)CC2)cc1 | 644 s |
| COC(=O)CNC(=O)NC(C(=O)N1CCc2ccccc21)C(C)C (configuration not stated) | 740 s |
| Cc1nc2cc(-c3noc(CNC(=O)c4ccccc4)n3)ccc2n(C)c1=O | 718 s |

| Structure (SMILES) | RP-LC retention time |
| --- | --- |
| Cc1ccc(Nc2nc(N)nc(CN3CCC(C(N)=O)CC3)n2)cc1 | 565 s |
| Cc1ccc2nc(-c3ccccc3NC(=O)c3ccc(Br)o3)[nH]c2c1 | 1140 s |
| CCOC(=O)N1CCC(Nc2c(C(=O)OC)c(=O)[nH]c3ccc(F)cc23)CC1 | 705 s |
| COc1ccccc1N1CCN(CCNS(=O)(=O)c2ccc(F)c(C)c2)CC1 | 608 s |
| CCOc1ccc(-n2c(-c3ccc(Cl)cc3)cn3c4c(=O)n(C)c(=O)n(C)c4nc23)cc1 | 1050 s |
| O=C1CCC(=O)N1CCc1c[nH]c2ccc(OCc3ccccc3)cc12 | 1030 s |
| Cc1cccc(-c2nc(N)n(C(=O)C3CC3)n2)c1 | 885 s |
| Clc1ccc(-c2nc(N3CCC(N4CCCCC4)CC3)c3ccccc3n2)cc1 | 616 s |
| O=C(COc1ccc(-c2nnc3n2CCCC3)cc1)Nc1cccc(Br)c1 | 642 s |
| CC1=C(C(=O)OC(C)C)C(c2cccc([N+](=O)[O-])c2)C(C(=O)OC2CN(C(c3ccccc3)c3ccccc3)C2)=C(N)N1 (configuration not stated) | 947 s |
| CCc1ccccc1NC(=O)N1CCN(c2cc(C)nc(N3CCCC3)n2)CC1 | 670 s |
| CCCN1CCN(c2ccc(-c3nc(-c4cccc(F)c4)no3)cn2)CC1 | 739 s |
| O=C(CCc1nc(CSc2nnc(-c3ccccc3)o2)no1)Nc1nccs1 | 766 s |
| COc1cccc(-n2ccnc(NC(=O)Nc3cccc(F)c3)c2=O)c1 | 934 s |
| CSc1cccc(NC(=O)Cn2cccc2-c2nc(-c3ccccc3)no2)c1 | 1070 s |
| O=C(Cn1ccn2nc(-c3ccccc3)c(CO)c2c1=O)Nc1cc(Cl)cc(Cl)c1 | 867 s |
| NC(=O)C1CCN(C(=O)CN2CCN(c3cccc(Cl)c3)CC2)CC1 | 600 s |
| CN1C(=O)C2CCCCN2c2ccc(C(=O)NCCc3ccco3)cc21 (configuration not stated) | 815 s |
| Cc1cnn(Cc2c(C(=O)N3C[C@@H](C(N)=O)[C@H](c4n[nH]c(C)n4)C3)noc2C)c1 | 590 s |
| Cc1ccc(NC(=O)CSc2nnc3c4cc(-c5ccc(F)cc5)nn4ccn23)cc1Cl | 1010 s |
| COC(=O)c1c(C)[nH]c(C(=O)N2CCCC(C(=O)N3CCCC3)C2)c1C (configuration not stated) | 663 s |
| Cc1ccc(C)c(C(O)Cn2ccn3nc(-c4cccs4)cc3c2=O)c1 (configuration not stated) | 915 s |

| Structure (SMILES) | RP-LC retention time |
| --- | --- |
| Cc1ccc(-c2nc(C3CC(=O)N(c4ccc(Cl)cc4)C3)no2)cc1C (configuration not stated) | 1200 s |
| CCc1nc(-c2cc(S(=O)(=O)Nc3ccc(F)cc3Cl)c(C)s2)cs1 | 1130 s |
| O=C(Nc1ccccn1)C1CCN(S(=O)(=O)c2cc(-c3noc(C4CCC4)n3)cs2)CC1 | 893 s |
| CC(C)N1C(=O)c2cccnc2Sc2cc(NC(=O)c3cccc(F)c3)ccc21 | 901 s |
| CCOC(=O)c1c(C)oc2nc(C)nc(Nc3ccc4c(c3)OCCO4)c12 | 1200 s |
| O=C([C@@H]1C[C@H](F)CN1C(=O)Cc1ccsc1)N1CCCCC1 | 657 s |
| Cn1nc(C(=O)N2CCCC2)c2c1CCN(C(=O)CCC(=O)NCCCN1CCCC1)C2 | 574 s |
| O=C([C@@H]1C[C@H](F)CN1S(=O)(=O)c1ccc(C(F)(F)F)cc1)N1CCCCC1 | 885 s |
| O=C(Nc1cccc(Oc2ccccn2)c1)c1c2c(nn1C1CCS(=O)(=O)C1)CCC2 (configuration not stated) | 807 s |
| CN1C(=O)c2cccn2CC1C(=O)Nc1cccc(Cl)c1 (configuration not stated) | 730 s |
| Cc1cccc(N2CCN(C(=O)c3[nH]c(C)c(S(=O)(=O)N4CCOCC4)c3C)CC2C)c1 (configuration not stated) | 752 s |
| CN(CC1CCOC1)C(=O)Nc1cc(F)c(F)c(F)c1 (configuration not stated) | 764 s |
| CCc1nc(-c2csc(S(=O)(=O)N3CCCC(C(=O)Nc4cc(Cl)ccc4C)C3)c2)no1 (configuration not stated) | 1130 s |
| COc1ccc(NC(=O)C2CCN(S(=O)(=O)c3c(C)[nH]c(C)c3C(=O)N3CCCC3)CC2)cc1 | 693 s |
| COc1ccc(-c2ncc3c(n2)CCN(C(=O)Nc2ccc(C)cc2C)C3)cc1 | 644 s |
| O=C(c1cc(S(=O)(=O)N2CCCC(C(=O)N3CCCCCC3)C2)c[nH]1)N1CCCCCC1 (configuration not stated) | 824 s |
| CCNC(=O)C1CCCN(c2nc3ncn(CC(=O)Nc4ccc(F)cc4)c(=O)c3s2)C1 (configuration not stated) | 657 s |
| Cc1oc(-c2cccs2)nc1CSc1ncnc2nc[nH]c12 | 714 s |
| O=C(NCC1(c2cccs2)CCOCC1)c1ccsc1 | 706 s |
| Cc1nc(-c2noc(-c3ccncc3)n2)cn1CC(=O)Nc1ccc(Cl)cc1 | 731 s |
| CN(Cc1ccccc1)C(=O)CN1C(=O)C2CCCCN2c2ccc(S(=O)(=O)N(C)C)cc21 (configuration not stated) | 939 s |

Reference: the METLIN SMRT retention time set (Domingo-Almenara et al. 2019)
